Experimental data as given in patent publication US5580881A, “1,2,3,5,6,7,8,8a-Octahydro-5,5,8a-trimethyl- (8aβ)-6-isoquinolineamine derivatives, preparation method therefor and therapeutical use thereof” (Fournier Industrie Et Sante, priority 1992, dated 1996).
Several values for one entry are separate records, joined by “and”; a condition that tells them apart may be missing. Equal entries are not always repeated. Where two headings read alike, the source gives them in different places.

Assays:
[1] = tested on: biosynthesis of hepatic cholesterol (hepatic epoxysqualene cyclase); assay: Influence on the biosynthesis of hepatic cholesterol in vivo: incorporation of radioactivity in the C27 sterols; settings: oral (gavage), male OF1 mice, relative to control (vehicle) group, 14C-mevalonolactone at 1 h, sacrifice at 2 h
Protocol: The influence of the molecules on hepatic cholesterogenesis in vivo is tested on male OF1 mice. The animals are conditioned in reverse cycle two weeks before administration of the product.
At T=0 on the day of the experiment, the animals (3 to 6 mice/group) receive by oral administration (gavage) a suspension of the test product in the vehicle (3% gum arabic in water).
At T=1 h, the radioactive precursor (R,S-2-^14 C-mevalonolactone) in a 0.9% aqueous solution of NaCl is injected intraperitoneally [2.5 or 5 μCi/mouse (i.e. 9.25×10^4 Bq or 1.85×10^5 Bq respectively)].
At T=2 h, the animals are sacrificed by dislocation of the cervix; the livers are removed, rinsed, weighed and frozen in liquid nitrogen before being stored at -20° C.
During the conditioning period and on the day of the experiment, the animals have free access to food and drinking water.
The administration of the test product and the injection of the radioactive precursor take place in the middle of the dark period.
After thawing, the whole liver (or part of the liver) is homogenized in water at 0°-4° C. An aliquot of the homogenate is then saponified in alcoholic potassium hydroxide for 90 minutes at 80° C. The unsaponifiable lipids are then extracted with petroleum ether. The solvent is evaporated off to dryness under a stream of nitrogen and the dry residue is redissolved in a chloroform/methanol mixture (2/1). The products contained in the extract are then separated by chromatography on a thin layer of silica after migration in the system hexane/ethyl acetate (80/20).
The deposition of a standard mixture containing non-radioactive cholesterol, lanosterol, monoepoxysqualene, diepoxysqualene and squalene, together with ^14 C-cholesterol, makes it possible to determine the Rf of the compounds which serve as a reference for analysis of the radioactive profile of the unsaponifiable lipids.
The distribution of the radioactivity is analyzed with an automatic linear analyzer. The relative percentage of radioactivity in the C^27 -sterol peak of the control (vehicle) group represents 100% incorporation. Calculation of the influence is based on the ratio of the percentage of radioactivity in the C^27 -sterol peak of the treated group to that of the control group.

[2] = target: T1, epoxysqualene cyclase of the hepatic microsomes (Rattus norvegicus, UniProt P48450); assay: Epoxysqualene cyclase inhibition: lanosterol formed from R,S-2,3-oxidosqualene by rat hepatic microsomes; format: biochemical, male Wistar rats
T1 construct: Rat hepatic microsomes are used as the enzyme source; from tissue; host or cells: liver microsomes of male Wistar rats
T1 sequence (P48450 1-733): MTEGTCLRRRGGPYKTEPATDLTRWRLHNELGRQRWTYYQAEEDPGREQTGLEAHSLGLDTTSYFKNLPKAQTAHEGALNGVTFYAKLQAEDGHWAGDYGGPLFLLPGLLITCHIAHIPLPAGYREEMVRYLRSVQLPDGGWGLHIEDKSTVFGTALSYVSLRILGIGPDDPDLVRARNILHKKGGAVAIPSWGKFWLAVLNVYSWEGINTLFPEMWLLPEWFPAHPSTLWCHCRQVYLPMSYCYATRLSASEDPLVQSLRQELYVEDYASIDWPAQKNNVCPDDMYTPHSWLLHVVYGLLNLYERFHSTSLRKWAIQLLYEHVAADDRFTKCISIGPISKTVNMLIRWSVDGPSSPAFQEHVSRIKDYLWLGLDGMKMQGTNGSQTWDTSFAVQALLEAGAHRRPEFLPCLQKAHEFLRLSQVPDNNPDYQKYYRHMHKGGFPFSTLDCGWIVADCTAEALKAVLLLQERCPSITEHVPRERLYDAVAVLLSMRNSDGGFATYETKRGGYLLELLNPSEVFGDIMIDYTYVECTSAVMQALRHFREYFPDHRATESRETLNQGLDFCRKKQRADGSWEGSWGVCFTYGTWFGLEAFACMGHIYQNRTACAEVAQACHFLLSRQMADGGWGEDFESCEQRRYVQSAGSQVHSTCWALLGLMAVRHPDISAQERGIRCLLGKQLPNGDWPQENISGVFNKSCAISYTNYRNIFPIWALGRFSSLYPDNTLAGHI
Protocol: The method consists in measuring the lanosterol formed from the R,S-2,3-oxidosqualene by the microsomal enzyme. The enzyme is prepared according to the method described by Ness G. C. (Ness G. C. et al., Biochem. J. (1986), 233,167-172).
Method of Measuring the Epoxysqualene Cyclase Activity
Rat hepatic microsomes are used as the enzyme source. The method consists in measuring the lanosterol formed from the R,S-2,3-oxidosqualene. The R,S-2,3-oxidosqualene, the test products and Tween®80, in the form of organic solutions (2-propanone or sulfinylbismethane) (25 μl ), are placed in test tubes and 400 μl of potassium phosphate buffer (0.1M, pH=7.4) are then added. The reaction is initiated by the addition of 100 μl of microsomes. For a final reaction volume of 525 μl , the mixture contains 150 μM of R,S-2,3-oxidosqualene, 0.1% of Tween®80 (to solubilize the R,S-2,3-oxidosqualene) and 250 μg of microsomal proteins. The reaction time is 60 minutes at 37° C. The reaction is stopped by the addition of 300 μl of methanolic potassium hydroxide (7%) and 20 μg of stigmasterol as an internal standard. After saponification at 80° C. for 30 minutes and stirring with a rotary stirrer, the sterols are extracted with 2 ml of hexane.
The lanosterol formed is separated from the R,S-2,3-oxidosqualene, the membrane cholesterol and the stigmasterol by gas chromatography after conversion to trimethylsilyl ethers. The derivatization of the sterols is carried out at 60° C. for 30 minutes after the addition of 25 μl of pyridine and 75 μl of the trimethylsilyl ester of 2,2,2-trifluoro-N-trimethylsilylethanimidic acid containing 1% of trimethylchlorosilane ethers.
After evaporation, the trimethylsilyl ethers are redissolved in 100 μl of hexane. An aliquot of this solution (2 μl) is chromatographed in the gas phase on an OV1 capillary column (0.32 mm, 25 m) under the following conditions: injector temperature=270° C., oven temperature=260° C., detector temperature=300° C., the carrier gas being nitrogen at a pressure of 7.10^4 Pa.
The potency of the molecules tested is expressed as the percentage inhibition of the amount of lanosterol formed for a concentration of 25.10^-6 mol of test product per liter. The results obtained with a number of compounds according to the invention are collated in Table II.

[3] = 25.10^-6 mol of test product per liter, 60 minutes at 37° C., pH=7.4, rat hepatic microsomes

Compound	Percentage inhibition of the amount of lanosterol formed [2, 3] [%]	other results
C=CCN1CC=C2C(C)(C)[C@@H](NC(=O)C(F)(F)F)CC[C@]2(C)C1 (relative stereo) [Example 1, N-Trifluoroacetyl-1,2,3,5,6,7,8,8a-octahydro-2-(2-propen-1-yl)-5,5,8a-trimethyl-(6β,8aβ)-6-isoquinolineamine]	–	Percentage influence on the incorporation of radioactivity in the C27 sterols ([1]; 50 mg base/kg): -37%
CCCCCCCCCCCCN1CC=C2C(C)(C)[C@@H](NC)CC[C@]2(C)C1 (relative stereo) [Example 12, N-Methyl-1,2,3,5,6,7,8,8a-octahydro-2-dodecyl-5,5,8a-trimethyl-(6β,8aβ)-6-isoquinolineamine ethanedioate]	65	–
C=CCN1CC=C2C(C)(C)[C@@H](NC)CC[C@]2(C)C1 (relative stereo) [Example 13, N-Methyl-1,2,3,5,6,7,8,8a-octahydro-2-(2-propen-1-yl)-5,5,8a-trimethyl-(6β,8aβ)-6-isoquinolineamine ethanedioate]	–	Percentage inhibition of the amount of lanosterol formed [2]: 63%
CCCCCCCCCCCCN1CC=C2C(C)(C)[C@@H](N)CC[C@]2(C)C1 (relative stereo) [Example 14, 1,2,3,5,6,7,8,8a-Octahydro-2-dodecyl-5,5,8a-trimethyl-(6β,8aβ)-6-isoquinolineamine E-2-butenedioate]	29	–
C=CCN1CC=C2C(C)(C)[C@@H](NC(C)=O)CC[C@]2(C)C1 (relative stereo) [Example 16, N-Acetyl-1,2,3,5,6,7,8,8a-octahydro-2-(2-propen-1-yl)-5,5,8a-trimethyl-(6β,8aβ)-6-isoquinolineamine 4-methylbenzenesulfonate]	–	Percentage influence on the incorporation of radioactivity in the C27 sterols ([1]; 50 mg base/kg): -14%
CCCCCCCCCCCCN1CC=C2C(C)(C)[C@@H](N(C)C)CC[C@]2(C)C1 (relative stereo) [Example 17, N,N-Dimethyl-1,2,3,5,6,7,8,8a-octahydro-2-dodecyl-5,5,8a-trimethyl-(6β,8aβ)-6-isoquinolineamine (E)-2-butenedioate]	100	–
CCCCCCCCCCCCN1CC=C2C(C)(C)[C@H](N(C)C)CC[C@]2(C)C1 (relative stereo) [Example 18, N,N-Dimethyl-1,2,3,5,6,7,8,8a-octahydro-2-dodecyl-5,5,8a-trimethyl-(6α,8aβ)-6-isoquinolineamine ethanedioate]	66	–
C=CCN1CC=C2C(C)(C)[C@@H](N(C)C)CC[C@]2(C)C1 (relative stereo) [Example 20, N,N-Dimethyl-1,2,3,5,6,7,8,8a-octahydro-2-(2-propen-1-yl)-5,5,8a-trimethyl-(6β,8aβ)-6-isoquinolineamine (E)-2-butenedioate]	89	Percentage influence on the incorporation of radioactivity in the C27 sterols ([1]; 50 mg base/kg): -21%
CCCN1CC=C2C(C)(C)[C@@H](N(C)C)CC[C@]2(C)C1 (relative stereo) [Example 21, N,N-Dimethyl-1,2,3,5,6,7,8,8a-octahydro-2-propyl-5,5,8a-trimethyl-(6β,8aβ)-6-isoquinolineamine ethanedioate]	100	–
CN(C)[C@H]1CC[C@]2(C)CN(CC=Cc3ccccc3)CC=C2C1(C)C (relative stereo) [Example 23, N,N-Dimethyl-1,2,3,5,6,7,8,8a-octahydro-2-(3-phenyl-2-propen-1-yl)-5,5,8a-trimethyl-(6β,8aβ)-6-isoquinolineamine 4-methylbenzenesulfonate]	98	–
CN(C)[C@H]1CC[C@]2(C)CN(CC=C(c3ccccc3)c3ccccc3)CC=C2C1(C)C (relative stereo) [Example 24, N,N-Dimethyl-1,2,3,5,6,7,8,8a-octahydro-2-(3,3-diphenyl-2-propen-1-yl)-5,5,8a-trimethyl-(6β,8aβ)-6isoquinolineamine ethanedioate]	92	–
CC1(C)C2=CCN(CC3CO3)C[C@@]2(C)CC[C@@H]1NC(=O)C(F)(F)F (stereo partly drawn) [Example 5, N-Trifluoroacetyl-1,2,3,5,6,7,8,8a-octahydro-2-[1-(2,3-epoxypropyl)]-5,5,8a-trimethyl-(6β,8aβ)-6-isoquinolineamine]	–	Percentage influence on the incorporation of radioactivity in the C27 sterols ([1]; 50 mg base/kg): -32%
CC1(C)C2=CCN(CC(O)CO)C[C@@]2(C)CC[C@@H]1NC(=O)C(F)(F)F (stereo partly drawn) [Example 6, N-Trifluoroacetyl-1,2,3,5,6,7,8,8a-octahydro-2-[1-(2,3-dihydroxypropyl)]-5,5,8a-trimethyl-(6β,8aβ)-6-isoquinolineamine E-2-butenedioate]	62	Percentage influence on the incorporation of radioactivity in the C27 sterols ([1]; 100 mg base/kg): -74% and -78%
CN(C)[C@H]1CC[C@]2(C)CN(CC(O)CO)CC=C2C1(C)C (stereo partly drawn) [Example 22, N,N-Dimethyl-1,2,3,5,6,7,8,8a-octahydro-2-[1-(2,3-dihydroxypropyl)]-5,5,8a-trimethyl-(6β,8aβ)-6-isoquinolineamine]	64	–
CC(Cc1ccc(C(C)C)cc1)CN1CC=C2C(C)(C)[C@@H](N(C)C)CC[C@]2(C)C1 (stereo partly drawn) [Example 25, N,N-Dimethyl-1,2,3,5,6,7,8,8a-octahydro-2-[1-[2-methyl-3-[4-(1-methylethyl)phenyl]propyl]]-5,5,8a-trimethyl-(6β,8aβ)-6-isoquinolineamine (E)-2-butenedioate]	98	–
